According to publication PMC9344054, “Studies on Chemical Characterization of Ginkgo Amillaria Oral Solution and Its Drug–Drug Interaction With Piceatannol 3′-O-β-D-Glucopyranoside for Injection” (Frontiers in Pharmacology, 2022):

Experiment: Pharmacokinetic study of PGI alone and after repeated GAO in rats
Type: in vivo, rat
Details: for clearance / AUC(0-inf) / AUC(0-t) / half-life: male, SD, rat, plasma, iv, 9 mg/kg, n = 8; for clearance: CL
Procedure: A total of 100 μl of rat plasma sample and 10 μl of polydatin solution (IS) were mixed with 400 μl of ice acetonitrile; the mixture was vortexed for 3 min and centrifuged at 13,200 × g under 4℃ for 20 min. The supernatant was transferred to another centrifuge tube and dry with nitrogen, re-dissolved with 100 μl of 80% methanol-H2O (v/v). The mixture was vortexed for 3 min and centrifuged at 13,200 × g under 4℃ for 20 min. For further LC-MS analysis, 3 μl of the supernatant was injected.
An ultrahigh-performance liquid chromatography-mass spectrometer (Waters, United States) was used for separation and detection. A Waters ACQUITY UPLC HSS T3 column (2.1 × 100 mm, 1.8 μm) was employed at 35℃ with a flow rate of 0.3 ml min^−1. The mobile phase consisted of acetonitrile (A) and water containing 0.1% FA (B). The following linear gradient was used: 0–4 min: 25–95% A; 4–4.5 min: 95–25% A; and 4.5–6 min: 25% A.
MRM was performed using QQQ-MS model Xevo TQ-S (Waters, United States). ESI was set as follows: capillary voltage, 3.0 kV; desolvation temperature, 450℃; and desolvation gas flow, 900 L/h (N2, purity 99.9%). The MRM transitions (precursor → product) of PG and polydatin (IS) were m/z 405.16 → m/z 243.18 and m/z 389.16 → m/z 227.20, respectively. The cone voltage of PG and polydatin were 80 and 84 V, respectively. The collision energy of PG and polydatin was 30 and 20 V, respectively.
Sixteen SD male rats (200 ± 20 g) were purchased from Beijing Vital River Laboratory Animal Technology Co., Ltd. (license number: SCXK (Beijing) 2016-0006). All rats were reared adaptively in a suitable environment for 1 week with freely available food and water. The temperature was maintained at 22℃, and the light was maintained for 12 h in a day.
The rats were randomly divided into two groups, viz., the control group (n = 8) and the combined group (n = 8). For the control group, 9 mg kg^−1 of PGI was injected into the tail vein of rats, whereas the same dosage of PGI was injected after 14 days of repeated GAO ingestion (51 mg kg^−1) for the combined group. The dosage administered to rats is in accordance with clinical dosage. After administration, blood samples were obtained from each rat at 0.03, 0.08, 0.16, 0.33, 0.5, 0.75, 1, 2, 3, 4, and 6 h. The blood sample was centrifuged at 6,600 × g under 4℃ for 10 min, and the supernatant was stored at −80℃ for further analysis.
Pharmacokinetic parameters were calculated under a noncompartmental model using Drug and Statistics 1.0 (DAS 1.0) software.

[1] = after 14 days repeated GAO, p < 0.05
[2] = Combined group: PGI 9 mg kg−1 tail vein after 14 days of repeated GAO 51 mg kg−1, rats
[3] = Control group: PGI 9 mg kg−1 tail vein, rats

With `OC[C@H]1O[C@@H](Oc2cc(/C=C/c3cc(O)cc(O)c3)ccc2O)[C@H](O)[C@@H](O)[C@@H]1O` [PG, Piceatannol-3′-O-β-D-glucopyranoside] the “change of AUC 0-t of PG, combined group vs control” value [1] was “significantly increased”, the “change of AUC 0-∞ of PG, combined group vs control” value [1] was “significantly increased” and the “change of T1/2 of PG, combined group vs control” value [1] was “prolonged”. The “change of clearance of PG, combined group vs control” value [1] was “significantly decreased”, the clearance [2] was 1.83 L/h/kg and the clearance [3] was 2.77 L/h/kg. For the same molecule, the AUC(0-inf) [2] was 5.01 ± 0.686 µg·h/mL, the AUC(0-t) [2] was 4.9 ± 0.606 µg·h/mL and the half-life [2] was 1.74 ± 0.802 h. For the same molecule, the AUC(0-inf) [3] was 3.32 ± 0.525 µg·h/mL, the AUC(0-t) [3] was 3.31 ± 0.517 µg·h/mL and the half-life [3] was 1.01 ± 0.409 h.
